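Dose response: 5 concentrations. Exposure: 48 h. Format: 96-well plates. Endpoint: linear interpolation; highest concentration if not reached. TGI denotes the concentration required for complete inhibition of growth.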
How the values were obtained:
Assay in all cases: NCI tumour cell line growth inhibition, 48 h
A498 renal = tested on: A498 renal
A549 NSCLC = tested on: A549 NSCLC
CAKI-1 renal = tested on: CAKI-1 renal
CCRF-CEM leukemia = tested on: CCRF-CEM leukemia
COLO 205 colon = tested on: COLO 205 colon
DLD-1 colon = tested on: DLD-1 colon
DMS 114 small cell lung = tested on: DMS 114 small cell lung
DMS 273 small cell lung = tested on: DMS 273 small cell lung
EKVX NSCLC = tested on: EKVX NSCLC
HCC-2998 colon = tested on: HCC-2998 colon
HCT-116 colon = tested on: HCT-116 colon
HCT-15 colon = tested on: HCT-15 colon
HL-60(TB) leukemia = tested on: HL-60(TB) leukemia
HOP-18 NSCLC = tested on: HOP-18 NSCLC
HOP-62 NSCLC = tested on: HOP-62 NSCLC
HOP-92 NSCLC = tested on: HOP-92 NSCLC
HT29 colon = tested on: HT29 colon
IGROV1 ovarian = tested on: IGROV1 ovarian
K-562 leukemia = tested on: K-562 leukemia
KM12 colon = tested on: KM12 colon
LOX IMVI melanoma = tested on: LOX IMVI melanoma
M19-MEL melanoma = tested on: M19-MEL melanoma
MALME-3M melanoma = tested on: MALME-3M melanoma
MCF7 breast = tested on: MCF7 breast
MOLT-4 leukemia = tested on: MOLT-4 leukemia
NCI-H226 lung = tested on: NCI-H226 lung
NCI-H23 lung = tested on: NCI-H23 lung
NCI-H460 lung = tested on: NCI-H460 lung
NCI-H522 lung = tested on: NCI-H522 lung
NCI/ADR-RES ovarian = tested on: NCI/ADR-RES ovarian
OVCAR-3 ovarian = tested on: OVCAR-3 ovarian
OVCAR-4 ovarian = tested on: OVCAR-4 ovarian
OVCAR-5 ovarian = tested on: OVCAR-5 ovarian
OVCAR-8 ovarian = tested on: OVCAR-8 ovarian
P388 leukemia = tested on: P388 leukemia
P388/ADR leukemia = tested on: P388/ADR leukemia
RPMI-8226 leukemia = tested on: RPMI-8226 leukemia
RXF 393 renal = tested on: RXF 393 renal
SF-268 CNS = tested on: SF-268 CNS
SF-295 CNS = tested on: SF-295 CNS
SF-539 CNS = tested on: SF-539 CNS
SK-MEL-2 melanoma = tested on: SK-MEL-2 melanoma
SK-MEL-28 melanoma = tested on: SK-MEL-28 melanoma
SK-MEL-5 melanoma = tested on: SK-MEL-5 melanoma
SK-OV-3 ovarian = tested on: SK-OV-3 ovarian
SN12C renal = tested on: SN12C renal
SN12K1 renal = tested on: SN12K1 renal
SNB-19 CNS = tested on: SNB-19 CNS
SNB-75 CNS = tested on: SNB-75 CNS
SNB-78 CNS = tested on: SNB-78 CNS
SW-620 colon = tested on: SW-620 colon
U251 CNS = tested on: U251 CNS
UACC-257 melanoma = tested on: UACC-257 melanoma
UACC-62 melanoma = tested on: UACC-62 melanoma
UO-31 renal = tested on: UO-31 renal
XF 498 CNS = tested on: XF 498 CNS

## O=C1CCC23CC(C=CC=C12)n1c(=O)n(-c2ccccc2)c(=O)n13 (stereo unspecified)
A498 renal
  TGI: > 100 µM
A549 NSCLC
  TGI: > 100 µM
CAKI-1 renal
  TGI: > 83.4 µM
CCRF-CEM leukemia
  TGI: > 100 µM
COLO 205 colon
  TGI: > 100 µM
DLD-1 colon
  TGI: > 100 µM
DMS 114 small cell lung
  TGI: > 100 µM
DMS 273 small cell lung
  TGI: > 100 µM
EKVX NSCLC
  TGI: > 100 µM
HCC-2998 colon
  TGI: > 100 µM
HCT-116 colon
  TGI: > 100 µM
HCT-15 colon
  TGI: > 100 µM
HL-60(TB) leukemia
  TGI: > 80.5 µM
HOP-18 NSCLC
  TGI: > 100 µM
HOP-62 NSCLC
  TGI: > 100 µM
HOP-92 NSCLC
  TGI: > 100 µM
HT29 colon
  TGI: > 100 µM
IGROV1 ovarian
  TGI: > 100 µM
K-562 leukemia
  TGI: > 100 µM
KM12 colon
  TGI: > 100 µM
LOX IMVI melanoma
  TGI: > 100 µM
M19-MEL melanoma
  TGI: > 100 µM
MALME-3M melanoma
  TGI: > 100 µM
MCF7 breast
  TGI: 32.3 µM
MOLT-4 leukemia
  TGI: > 100 µM
NCI-H226 lung
  TGI: > 100 µM
NCI-H23 lung
  TGI: > 100 µM
NCI-H460 lung
  TGI: > 100 µM
NCI-H522 lung
  TGI: > 100 µM
NCI/ADR-RES ovarian
  TGI: > 81.2 µM
OVCAR-3 ovarian
  TGI: > 100 µM
OVCAR-4 ovarian
  TGI: > 100 µM
OVCAR-5 ovarian
  TGI: > 100 µM
OVCAR-8 ovarian
  TGI: > 100 µM
P388 leukemia
  TGI: > 100 µM
P388/ADR leukemia
  TGI: > 100 µM
RPMI-8226 leukemia
  TGI: > 100 µM
RXF 393 renal
  TGI: > 100 µM
SF-268 CNS
  TGI: > 100 µM
SF-295 CNS
  TGI: > 100 µM
SF-539 CNS
  TGI: > 100 µM
SK-MEL-2 melanoma
  TGI: > 100 µM
SK-MEL-28 melanoma
  TGI: > 100 µM
SK-MEL-5 melanoma
  TGI: > 100 µM
SK-OV-3 ovarian
  TGI: > 100 µM
SN12C renal
  TGI: > 100 µM
SN12K1 renal
  TGI: > 100 µM
SNB-19 CNS
  TGI: > 100 µM
SNB-75 CNS
  TGI: > 100 µM
SNB-78 CNS
  TGI: > 100 µM
SW-620 colon
  TGI: > 100 µM
U251 CNS
  TGI: > 100 µM
UACC-257 melanoma
  TGI: > 100 µM
UACC-62 melanoma
  TGI: > 100 µM
UO-31 renal
  TGI: > 100 µM
XF 498 CNS
  TGI: > 100 µM

Reference: PubChem BioAssay (NCI)
